Experimental data taken from ChEMBL document CHEMBL2157869, “N'-substituted-2'-O,3'-N-carbonimidoyl bridged macrolides: novel anti-inflammatory macrolides without antimicrobial activity” (J Med Chem, 2012).
pIC50: −log10 of the molar value. Values after ≈ are worked out from the molar mass of the structure shown. Active and inactive are the calls of the source. The calls are words filed in the database; no cut-off is given here.

Assays:
Streptococcus pyogenes = test: Antibacterial activity against Streptococcus pyogenes ATCC 700294 by CLSI broth microdilution method; assay type: functional
[1] = Antiinflammatory activity in mouse splenocytes assessed as inhibition of LPS-induced IL-6 production at 50 uM preincubated for 2 hrs prior to LPS challenge by sandwich ELISA; assay type: functional; conditions: Splenocyte
[2] = Cytotoxicity against human THP1 cells assessed as cell viability at 50 uM after 24 hrs by MTT assay; assay type: cell-based, THP-1; conditions: read-out: Activity
[3] = Antiinflammatory activity in mouse splenocytes assessed as inhibition of LPS-induced IL-6 production in mouse splenocytes at 25 uM preincubated for 2 hrs prior to LPS challenge by sandwich ELISA; assay type: functional; conditions: Splenocyte
[4] = Antiinflammatory activity in mouse splenocytes assessed as inhibition of LPS-induced IL-6 production at 12 uM preincubated for 2 hrs prior to LPS challenge by sandwich ELISA; assay type: functional; conditions: Splenocyte
Cytochrome P450 3A4 [5] = target: T1, Cytochrome P450 3A4 (Homo sapiens, UniProt P08684)
Description: Inhibition of human recombinant CYP3A4 using DEF as substrate preincubated for 5 to 10 mins before substrate addition

Cytochrome P450 3A4 [6] = target: T1, Cytochrome P450 3A4; remark: listed apart in the source
Description: Inhibition of human recombinant CYP3A4 using 7-BQ as substrate preincubated for 5 to 10 mins before substrate addition

Streptococcus pneumoniae = test: Antibacterial activity against Streptococcus pneumoniae ATCC 49619 by CLSI broth microdilution method; assay type: functional
Staphylococcus aureus = test: Antibacterial activity against Staphylococcus aureus ATCC 13709 by CLSI broth microdilution method; assay type: functional
Haemophilus influenzae = test: Antibacterial activity against Haemophilus influenzae ATCC 49247 by CLSI broth microdilution method; assay type: functional
Moraxella catarrhalis = test: Antibacterial activity against Moraxella catarrhalis ATCC 23246 by CLSI broth microdilution method; assay type: functional
Mus musculus [7] = test: Antiinflammatory activity in BALB/cJ mouse assessed as decrease in LPS-induced neutrophil number in bronchoalveolar lavage fluid at 200 mg/kg, ip administered 2 hrs prior to LPS challenge measured after 24 hrs post LPS challenge; assay type: functional, organism-based; design: dose 200 mg/kg; conditions: Lung
Mus musculus [8] = test: Antiinflammatory activity in BALB/cJ mouse assessed as decrease in LPS-induced total cell number in bronchoalveolar lavage fluid at 200 mg/kg, ip administered 2 hrs prior to LPS challenge measured after 24 hrs post LPS challenge; assay type: functional, organism-based; design: dose 200 mg/kg; conditions: Lung

T1 sequence (P08684 whole entry): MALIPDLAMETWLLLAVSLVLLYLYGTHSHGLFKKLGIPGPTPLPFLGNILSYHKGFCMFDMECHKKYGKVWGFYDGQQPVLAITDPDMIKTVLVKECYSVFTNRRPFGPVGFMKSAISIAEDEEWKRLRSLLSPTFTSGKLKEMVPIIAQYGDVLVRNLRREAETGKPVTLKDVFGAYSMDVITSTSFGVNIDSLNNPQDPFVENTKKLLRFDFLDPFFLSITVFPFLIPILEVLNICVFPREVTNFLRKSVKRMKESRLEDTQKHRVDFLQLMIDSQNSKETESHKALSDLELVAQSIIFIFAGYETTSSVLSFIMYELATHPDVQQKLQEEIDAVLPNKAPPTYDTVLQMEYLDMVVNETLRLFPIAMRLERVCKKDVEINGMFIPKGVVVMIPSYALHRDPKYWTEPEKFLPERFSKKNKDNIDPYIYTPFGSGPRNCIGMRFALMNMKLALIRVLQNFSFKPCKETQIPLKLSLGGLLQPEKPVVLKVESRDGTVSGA

## CC/N=C1\O[C@H]2[C@H](O[C@@H]3[C@@H](C)[C@H](O[C@H]4C[C@@](C)(OC)[C@@H](O)[C@H](C)O4)[C@@H](C)C(=O)O[C@H](CC)[C@@](C)(O)[C@H](O)[C@@H](C)C(=O)[C@H](C)C[C@@]3(C)O)O[C@H](C)C[C@@H]2N1C
Streptococcus pyogenes
  MIC: > 64 µg/mL
[1]
  inhibition at 50 µM: 86%
[2]
  viability at 24 h, 50 µM: 0%
[3]
  inhibition at 25 µM: 80%
[4]
  inhibition at 12 µM: 70%
Cytochrome P450 3A4 [5]
  pIC50: 6.30
Cytochrome P450 3A4 [6]
  pIC50: 5.24

## CC[C@H]1OC(=O)[C@H](C)[C@@H](O[C@H]2C[C@@](C)(OC)[C@@H](O)[C@H](C)O2)[C@H](C)[C@@H](O[C@@H]2O[C@H](C)C[C@H]3[C@H]2O/C(=N/Cc2ccccc2)N3C)[C@](C)(O)C[C@@H](C)CN(C)[C@H](C)[C@@H](O)[C@]1(C)O
Streptococcus pneumoniae
  MIC: 1 µg/mL (≈ 1.18 µM)

## CC[C@H]1OC(=O)[C@H](C)[C@@H](O[C@H]2C[C@@](C)(OC)[C@@H](O)[C@H](C)O2)[C@H](C)[C@@H](O[C@@H]2O[C@H](C)C[C@H]3[C@H]2O/C(=N\CCCN(C)C)N3C)[C@](C)(OC)C[C@@H](C)C(=O)[C@H](C)[C@@H](O)[C@]1(C)O
Streptococcus pyogenes
  MIC: > 64 µg/mL
[1]
  inhibition at 50 µM: 74%
[2]
  viability at 24 h, 50 µM: 0%
[3]
  inhibition at 25 µM: 62%
[4]
  inhibition at 12 µM: 55%
Cytochrome P450 3A4 [5]
  pIC50: 6.15
Cytochrome P450 3A4 [6]
  pIC50: 5.10

## CC[C@H]1OC(=O)[C@H](C)[C@@H](O[C@H]2C[C@@](C)(OC)[C@@H](O)[C@H](C)O2)[C@H](C)[C@@H](O[C@@H]2O[C@H](C)C[C@H]3[C@H]2O/C(=N/Cc2ccccc2)N3C)[C@](C)(OC)C[C@@H](C)NC(=O)[C@H](C)[C@@H](O)[C@]1(C)O
Streptococcus pneumoniae
  MIC: 1 µg/mL (≈ 1.16 µM)

## CC[C@H]1OC(=O)[C@H](C)[C@@H](O[C@H]2C[C@@](C)(OC)[C@@H](O)[C@H](C)O2)[C@H](C)[C@@H](O[C@@H]2O[C@H](C)C[C@H]3[C@H]2O/C(=N/c2cccc4ccccc24)N3C)[C@](C)(O)C[C@@H](C)CN(C)[C@H](C)[C@@H](O)[C@]1(C)O
Streptococcus pneumoniae
  MIC: 1 µg/mL (≈ 1.13 µM)

## CC[C@H]1OC(=O)[C@H](C)[C@@H](O[C@H]2C[C@@](C)(OC)[C@@H](O)[C@H](C)O2)[C@H](C)[C@@H](O[C@@H]2O[C@H](C)C[C@H]3[C@H]2O/C(=N\C(C)C)N3C)[C@](C)(O)C[C@@H](C)C(=O)[C@H](C)[C@@H](O)[C@]1(C)O
Streptococcus pyogenes
  MIC: > 64 µg/mL
[1]
  inhibition at 50 µM: 94%
[2]
  viability at 24 h, 50 µM: 0%
[3]
  inhibition at 25 µM: 81%
[4]
  inhibition at 12 µM: 61%

## CC[C@H]1OC(=O)[C@H](C)[C@@H](O[C@H]2C[C@@](C)(OC)[C@@H](O)[C@H](C)O2)[C@H](C)[C@@H](O[C@@H]2O[C@H](C)C[C@H]3[C@H]2O/C(=N/Cc2ccccc2)N3C)[C@@](C)(OC)C/C(C)=C2/O[C@@]1(C)C=C2C
Staphylococcus aureus
  MIC: 8 µg/mL (≈ 9.84 µM)

## CC/N=C1/O[C@H]2[C@H](O[C@@H]3[C@@H](C)[C@H](O[C@H]4C[C@@](C)(OC)[C@@H](O)[C@H](C)O4)[C@@H](C)C(=O)O[C@H](CC)[C@@]4(C)OC5(O[C@@]3(C)C[C@H]5C)[C@H](C)[C@@H]4C)O[C@H](C)C[C@@H]2N1C
Streptococcus pneumoniae
  Activity: Active
Streptococcus pyogenes
  Activity: Active
Staphylococcus aureus
  Activity: Active
Haemophilus influenzae
  Activity: Active
Moraxella catarrhalis
  Activity: Active

## CC[C@H]1OC(=O)[C@H](C)[C@@H](O[C@H]2C[C@@](C)(OC)[C@@H](O)[C@H](C)O2)[C@H](C)[C@@H](O[C@@H]2O[C@H](C)C[C@H]3[C@H]2O/C(=N/C(C)C)N3C)[C@@](C)(OC)C/C(C)=C2/O[C@@]1(C)C=C2C
Moraxella catarrhalis
  MIC: 8 µg/mL (≈ 10.5 µM)

## CC/N=C1/O[C@H]2[C@H](O[C@@H]3[C@@H](C)[C@H](O[C@H]4C[C@@](C)(OC)[C@@H](O)[C@H](C)O4)[C@@H](C)C(=O)O[C@H](CC)[C@]4(C)C=C(C)/C(=C(/C)C[C@]3(C)OC)O4)O[C@H](C)C[C@@H]2N1C
Moraxella catarrhalis
  MIC: 8 µg/mL (≈ 10.7 µM)

## CC[C@H]1OC(=O)[C@H](C)[C@@H](O[C@H]2C[C@@](C)(OC)[C@@H](O)[C@H](C)O2)[C@H](C)[C@@H](O[C@@H]2O[C@H](C)C[C@H]3[C@H]2O/C(=N/c2ccc(OC)cc2)N3C)[C@](C)(OC)C[C@@H](C)C(=O)N[C@H](C)[C@@H](O)[C@]1(C)O
Streptococcus pyogenes
  MIC: > 64 µg/mL
[1]
  inhibition at 50 µM: 71%
[2]
  viability at 24 h, 50 µM: 6%
[3]
  inhibition at 25 µM: 44%
[4]
  inhibition at 12 µM: 39%
Cytochrome P450 3A4 [5]
  pIC50: 6.15
Cytochrome P450 3A4 [6]
  pIC50: 5.33

## CC/N=C1\O[C@H]2[C@H](O[C@@H]3[C@@H](C)[C@H](O[C@H]4C[C@@](C)(OC)[C@@H](O)[C@H](C)O4)[C@@H](C)C(=O)O[C@H](CC)[C@@](C)(O)[C@H](O)[C@@H](C)C(=O)[C@H](C)C[C@@]3(C)OC)O[C@H](C)C[C@@H]2N1C
Streptococcus pyogenes
  MIC: > 64 µg/mL
[1]
  inhibition at 50 µM: 73%
[2]
  viability at 24 h, 50 µM: 0%
[3]
  inhibition at 25 µM: 64%
[4]
  inhibition at 12 µM: 55%
Cytochrome P450 3A4 [6]
  pIC50: 5.54

## CC[C@H]1OC(=O)[C@H](C)[C@@H](O[C@H]2C[C@@](C)(OC)[C@@H](O)[C@H](C)O2)[C@H](C)[C@@H](O[C@@H]2O[C@H](C)C[C@H]3[C@H]2O/C(=N\C(C)C)N3C)[C@](C)(OC)C[C@@H](C)NC(=O)[C@H](C)[C@@H](O)[C@]1(C)O
Streptococcus pyogenes
  MIC: > 64 µg/mL
[1]
  inhibition at 50 µM: 67%
[2]
  viability at 24 h, 50 µM: 0%
[3]
  inhibition at 25 µM: 55%
[4]
  inhibition at 12 µM: 45%
Cytochrome P450 3A4 [5]
  pIC50: 6.00
Cytochrome P450 3A4 [6]
  pIC50: < 5.00

## CC[C@H]1OC(=O)[C@H](C)[C@@H](O[C@H]2C[C@@](C)(OC)[C@@H](O)[C@H](C)O2)[C@H](C)[C@@H](O[C@@H]2O[C@H](C)C[C@H]3[C@H]2O/C(=N\CCCSC)N3C)[C@](C)(OC)C[C@@H](C)C(=O)N[C@H](C)[C@@H](O)[C@]1(C)O
Streptococcus pyogenes
  MIC: > 64 µg/mL
[1]
  inhibition at 50 µM: 67%
[2]
  viability at 24 h, 50 µM: 0%
[3]
  inhibition at 25 µM: 48%
[4]
  inhibition at 12 µM: 36%
Cytochrome P450 3A4 [5]
  pIC50: 5.88
Cytochrome P450 3A4 [6]
  pIC50: < 5.00

## CC[C@H]1OC(=O)[C@H](C)[C@@H](O[C@H]2C[C@@](C)(OC)[C@@H](O)[C@H](C)O2)[C@H](C)[C@@H](O[C@@H]2O[C@H](C)C[C@H]3[C@H]2O/C(=N/C(C)C)N3C)[C@](C)(OC)C[C@@H](C)N(C)C[C@H](C)[C@@H](O)[C@]1(C)O
Streptococcus pneumoniae
  MIC: 1 µg/mL (≈ 1.23 µM)

## CC[C@H]1OC(=O)[C@H](C)[C@@H](O[C@H]2C[C@@](C)(OC)[C@@H](O)[C@H](C)O2)[C@H](C)[C@@H](O[C@@H]2O[C@H](C)C[C@H]3[C@H]2O/C(=N\C(C)(C)C)N3C)[C@](C)(OC)C[C@@H](C)C(=O)N[C@H](C)[C@@H](O)[C@]1(C)O
Streptococcus pyogenes
  MIC: > 64 µg/mL
[1]
  inhibition at 50 µM: 86%
[2]
  viability at 24 h, 50 µM: 0%
[3]
  inhibition at 25 µM: 62%
[4]
  inhibition at 12 µM: 52%

## CC/N=C1\O[C@H]2[C@H](O[C@@H]3[C@@H](C)[C@H](O[C@H]4C[C@@](C)(OC)[C@@H](O)[C@H](C)O4)[C@@H](C)C(=O)O[C@H](CC)[C@@](C)(O)[C@H](O)[C@@H](C)N(C)C[C@H](C)C[C@@]3(C)O)O[C@H](C)C[C@@H]2N1C
Mus musculus [7]
  Activity: Active
Streptococcus pyogenes
  MIC: > 64 µg/mL
[1]
  inhibition at 50 µM: 99%
[2]
  viability at 24 h, 50 µM: 0%
[3]
  inhibition at 25 µM: 96%
[4]
  inhibition at 12 µM: 86%
Mus musculus [8]
  Activity: Active
Cytochrome P450 3A4 [5]
  pIC50: 5.10
Cytochrome P450 3A4 [6]
  pIC50: < 5.00
